Test results as given in publication PMC4109680, “Identification and Preclinical Pharmacology of the γ-Secretase Modulator BMS-869780” (International Journal of Alzheimer's Disease, 2014).

Legend:
[1] = tested on: rat brain APP-CTFβ and APP-CTFα; assay: Immunoprecipitation and western blot of APP-CTFβ and APP-CTFα from rat brain; assay type: in vivo; conditions: 10 mg/kg, 5 hours
Description: Rats were given oral doses of BMS-869780, and levels of brain Aβ, βCTF, and αCTF were determined 24 hours later. For comparison, BMS-698861 was dosed in a separate experiment and samples were taken 5 hours later. (a) Brain levels of Aβ1-42 (red), Aβ1-40 (green), Aβ1-38 (blue), and Aβ1-37 (purple) are shown as bars stacked upon one another. The total height of each bar therefore represents the sum of the four peptides. (b) Aβ1-42 (red—left Y axis) and Aβ1-x (grey—right Y axis). The same results for Aβ1-42 are plotted in both (a) and (b). (c) Rat brain βCTF was detected by western blotting of immunoprecipitates from samples of the same rat brains used for Aβ determinations. V, vehicle groups; results from rats dosed with 1.9, 22, 100, and 235 mg/kg of BMS-869780 and 10 mg/kg BMS-698861 (GSI) are indicated. (d) Western blots of immunoprecipitated αCTF from the same rat brain samples. (e) and (f) quantification of western blots shown in (c) and (d), respectively, expressed relative to percent of average level of CTF in vehicle-treated rats. Actual doses of BMS-869780 were determined by analysis of concentrations in left-over dosing solutions. […]

[2] = tested on: brain Aβ1-42, brain Aβ1-40, plasma Aβ1-40; assay: Rat intraperitoneal dose response, brain and plasma Aβ 5 hours after dosing; assay type: in vivo; conditions: 30 mg/kg, 5 hours
Description: (§1) IC50 determinations for Aβ1-42 and Aβ1-40 in H4-APPsw cultures in 384-well format were determined using homogeneous time-resolved fluorescence immunoassays as previously described. The principle of these assays is illustrated in Figures 1(c) and 1(d). In other experiments using H4-APPsw cultures, Aβ was quantified by ELISA; for Aβ1-42 the combination of monoclonal antibodies was 26D6 and 565-HRP; for Aβ1-40 it was TSD and 26D6-HRP, and for Aβ1-x it was 4G8 and 26D6-HRP. In some experiments a novel 4-plex Aβ electrochemiluminescence immunoassay was used (Mesoscale Discovery catalog number N45ZA-1). Briefly, the 4-plex was carried out in 96-well format, with 4 separate spots of capture antibodies in each well. The 96-well plates were prepared by the manufacturer, with spots of monoclonal antibodies for Aβ1-42, Aβ1-40, and Aβ1-38, and an additional fourth spot of streptavidin in each well. Plates were initially incubated with blocking buffer (5% BSA in phosphate buffered saline, 200 μL per well) for 2 hours at ambient temperature and then with D2A6H-biotin conjugate (50 ng/mL in 1% BSA, phosphate buffered saline, 25 μL per well) for 1 hour. Plates were then rinsed with phosphate buffered saline before addition of experimental samples for determination of Aβ1-42, Aβ1-40, Aβ1-38, and Aβ1-37 levels, following the manufacturer's instructions as for the Aβ 3-plex kit (catalog number K15148E-1). Rat brain extracts for use in the 4-plex assay were made in 0.2% diethylamine, as previously described. For detection of rat Aβ peptides in the 4-plex (Figure 5), 252Q6-sulfo-tag conjugate was used, and for detection of human Aβ peptides from cell cultures 6E10-sulfo-tag conjugate was used. For Aβ in transiently transfected PS1/PS2 dKO fibroblasts, Aβ1-42 was quantified using an ELISA kit (WACO), and Aβ1-40 was quantified by ELISA as described above for H4-APPsw cultures. For triple transgenic mice (3xTg; [63]), human transgenic Aβ1-42 was assayed in brain homogenates using an ELISA kit (WACO). For the rat and mouse experiments illustrated in Figures 7 and 8, brain samples were prepared by solid phase extraction, and endogenous rat brain Aβ1-42 and Aβ1-40 were quantified by ELISA as previously described for wild type mice. For brain extracts made using solid phase extraction, calibration of Aβ was relative, based on the approximately linear response of the assay in the range tested. For brain extracts made in 0.2% diethylamine, Aβ1-42, Aβ1-40, Aβ1-38, and Aβ1-37 concentrations in brain and cell culture samples were determined by fitting the results of immunoassays against calibration curves derived from a range of dilutions of the corresponding synthetic peptides on each assay plate using a quadratic curve fit (Graphpad Prizm 5.0). Aβ1-x was calibrated in the same way against synthetic Aβ1-40 peptide. Results were expressed in units of pM, corrected for sample dilution.
Figure 7 BMS-869780 dose response and evaluation of residual Aβ levels in rat brain. (a) Groups of rats received intraperitoneal (IP) injections of vehicle or BMS-869780 at doses of 100, 30, 10, 3, 1, and 0.3 mg/kg. Additional rats were dosed with GSI BMS-698861 at 30 mg/kg as a positive control for Aβ-lowering. Group sizes were seven rats for each dose of BMS-869780 and 14 rats for vehicle and GSI dose groups. Brain and plasma were harvested 5 hours after dosing. Brain Aβ1-42 (green), brain Aβ1-40 (blue), brain Aβ1-x (black), and plasma Aβ1-40 (red) were determined. Values are expressed as % relative to vehicle group mean. Whiskers represent standard error. ⊗Aβ1-x was not determined in the groups dosed at 3, 1, and 0.3 mg/kg. (b) Brain Aβ1-40 was plotted against brain Aβ1-42 for each rat dosed with BMS-869780 (black ▼) and for each rat dosed with vehicle (grey ●). Values are expressed as % relative to vehicle group mean. Whiskers represent standard error. […]

rat brain Aβ = assay: Rat brain Aβ peptides after oral dose (4-plex immunoassay and Aβ1-x); assay type: in vivo; conditions: 10 mg/kg, 5 hours
Description: as §1
Rats were given oral doses of BMS-869780, and levels of brain Aβ, βCTF, and αCTF were determined 24 hours later. For comparison, BMS-698861 was dosed in a separate experiment and samples were taken 5 hours later. […] (c) Rat brain βCTF was detected by western blotting of immunoprecipitates from samples of the same rat brains used for Aβ determinations. […] (e) and (f) quantification of western blots shown in (c) and (d), respectively, expressed relative to percent of average level of CTF in vehicle-treated rats. […]

Notch/Aβ1-40 = tested on: Notch/Aβ1-40; design: method as in PMID 24900185; conditions: cited from earlier work
[3] = tested on: Aβ1-42 in cerebrospinal fluid; design: method as in PMID 18090435; conditions: clinical trials, even at high doses; cited from earlier work
brain Aβ1-42 = tested on: brain Aβ1-42; design: method as in PMID 12897211, PMID 17650315; conditions: rodents; cited from earlier work

## NC(=O)[C@@H](CC1CC1)N(Cc1ccc(-c2ncon2)cc1F)S(=O)(=O)c1ccc(Cl)cc1 [BMS-698861, reference compound]
[1]
  rat brain APP-CTFβ and APP-CTFα levels: increased several-fold
[2]
  Aβ lowering in all Aβ assays including Aβ1-x: robust lowering in all Aβ assays
Rat brain Aβ
  rat brain Aβ1-40, Aβ1-42, Aβ1-38, Aβ1-37 and Aβ1-x: decreased levels of all the peptides

## NC(=O)[C@@H](CCC(F)(F)F)N(Cc1ccc(-c2ncon2)cc1F)S(=O)(=O)c1ccc(Cl)cc1 [avagacestat]
Notch/Aβ1-40
  Notch/Aβ1-40 IC50 ratio: 193

## CC(C(=O)O)c1ccc(-c2ccccc2)c(F)c1 (stereo not drawn) [flurbiprofen]
[3]
  effect on Aβ1-42 in cerebrospinal fluid: no effect on Aβ1-42 in cerebrospinal fluid
Brain Aβ1-42
  effect on brain Aβ1-42: lower brain Aβ1-42 in rodents
